# Results published in patent US20220009920A1 (GB005, Inc., priority 2020, published 2022).
# How the values were obtained:
# Test in all cases: Large panel kinase profiling
# Type in all cases: biochemical
# Conditions in all cases: 1 μM test article, 1 mM ATP
# [1] = target: ERBB4/HER4 (Homo sapiens, UniProt Q15303)
# Outline: (§1)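 Profiling across the panel relied on the PhosphoSens CSox-Sensor format. A compound concentration of 1 μM and an ATP level of 1 mM were used throughout.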
# [2] = target: T1, LATS2 (Homo sapiens, UniProt Q9NRM7)
# T1 sequence (Q9NRM7 1-1088): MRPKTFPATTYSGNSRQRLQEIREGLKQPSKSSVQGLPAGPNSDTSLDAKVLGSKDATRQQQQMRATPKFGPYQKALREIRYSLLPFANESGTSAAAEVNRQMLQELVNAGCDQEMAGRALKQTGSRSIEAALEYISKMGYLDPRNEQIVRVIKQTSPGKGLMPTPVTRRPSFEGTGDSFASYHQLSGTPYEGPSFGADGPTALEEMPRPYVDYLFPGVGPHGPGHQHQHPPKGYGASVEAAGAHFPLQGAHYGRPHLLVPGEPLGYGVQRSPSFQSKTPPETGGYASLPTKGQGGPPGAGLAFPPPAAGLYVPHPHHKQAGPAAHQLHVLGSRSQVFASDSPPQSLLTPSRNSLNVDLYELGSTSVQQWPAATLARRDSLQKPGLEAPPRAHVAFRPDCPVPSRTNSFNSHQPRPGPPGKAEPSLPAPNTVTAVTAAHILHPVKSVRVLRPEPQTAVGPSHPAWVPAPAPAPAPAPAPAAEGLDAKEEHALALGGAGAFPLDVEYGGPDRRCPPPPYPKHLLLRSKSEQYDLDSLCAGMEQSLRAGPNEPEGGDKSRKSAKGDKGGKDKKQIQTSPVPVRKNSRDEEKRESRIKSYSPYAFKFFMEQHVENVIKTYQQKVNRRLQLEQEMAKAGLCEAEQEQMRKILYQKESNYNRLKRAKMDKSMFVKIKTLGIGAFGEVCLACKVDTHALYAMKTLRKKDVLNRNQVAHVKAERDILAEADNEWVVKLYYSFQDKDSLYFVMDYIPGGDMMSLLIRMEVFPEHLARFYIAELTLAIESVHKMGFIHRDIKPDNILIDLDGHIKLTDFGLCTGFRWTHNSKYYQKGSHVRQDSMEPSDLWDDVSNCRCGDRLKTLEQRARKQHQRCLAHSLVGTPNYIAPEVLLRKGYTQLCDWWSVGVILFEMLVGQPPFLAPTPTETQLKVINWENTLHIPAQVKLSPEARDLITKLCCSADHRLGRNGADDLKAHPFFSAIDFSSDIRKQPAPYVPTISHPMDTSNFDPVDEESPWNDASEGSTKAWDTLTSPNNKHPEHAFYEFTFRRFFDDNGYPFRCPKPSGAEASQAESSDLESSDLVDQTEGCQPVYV
# Outline: as §1
# [3] = target: T2, CDK1/E1 (Homo sapiens, UniProt P06493)
# T2 construct: AssayQuant Technologies, Inc. (ran the panel)
# Outline: as §1
# [4] = target: T3, STK4/MST1 (Homo sapiens, UniProt Q13043)
# T3 construct: AssayQuant Technologies, Inc. (contract assay)
# T3 sequence (Q13043 1-487): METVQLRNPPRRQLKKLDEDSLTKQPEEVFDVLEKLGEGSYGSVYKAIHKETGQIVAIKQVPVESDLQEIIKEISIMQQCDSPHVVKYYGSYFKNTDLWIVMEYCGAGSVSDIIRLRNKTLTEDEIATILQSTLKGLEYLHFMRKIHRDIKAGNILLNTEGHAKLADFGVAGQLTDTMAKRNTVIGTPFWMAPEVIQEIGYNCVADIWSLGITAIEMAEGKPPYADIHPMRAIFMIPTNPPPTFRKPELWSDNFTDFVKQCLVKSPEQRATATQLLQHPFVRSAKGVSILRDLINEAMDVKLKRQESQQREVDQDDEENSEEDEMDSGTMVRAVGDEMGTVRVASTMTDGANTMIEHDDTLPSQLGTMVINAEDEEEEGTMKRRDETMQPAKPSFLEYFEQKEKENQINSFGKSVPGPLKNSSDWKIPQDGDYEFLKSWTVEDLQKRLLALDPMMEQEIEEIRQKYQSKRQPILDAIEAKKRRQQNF
# Outline: as §1
# [5] = target: PIM1 (Homo sapiens, UniProt P11309)
# Outline: as §1
# T2 sequence (P06493 whole entry, species assumed): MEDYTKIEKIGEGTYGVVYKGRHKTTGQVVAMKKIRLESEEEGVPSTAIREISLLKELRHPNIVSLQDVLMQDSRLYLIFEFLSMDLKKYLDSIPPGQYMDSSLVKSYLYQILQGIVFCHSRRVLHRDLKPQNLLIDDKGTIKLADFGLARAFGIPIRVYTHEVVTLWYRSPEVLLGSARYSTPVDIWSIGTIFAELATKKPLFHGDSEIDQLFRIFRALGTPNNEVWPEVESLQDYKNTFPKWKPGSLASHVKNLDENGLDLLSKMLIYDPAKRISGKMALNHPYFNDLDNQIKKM
# T2 sequence (P24864 whole entry partner, species assumed): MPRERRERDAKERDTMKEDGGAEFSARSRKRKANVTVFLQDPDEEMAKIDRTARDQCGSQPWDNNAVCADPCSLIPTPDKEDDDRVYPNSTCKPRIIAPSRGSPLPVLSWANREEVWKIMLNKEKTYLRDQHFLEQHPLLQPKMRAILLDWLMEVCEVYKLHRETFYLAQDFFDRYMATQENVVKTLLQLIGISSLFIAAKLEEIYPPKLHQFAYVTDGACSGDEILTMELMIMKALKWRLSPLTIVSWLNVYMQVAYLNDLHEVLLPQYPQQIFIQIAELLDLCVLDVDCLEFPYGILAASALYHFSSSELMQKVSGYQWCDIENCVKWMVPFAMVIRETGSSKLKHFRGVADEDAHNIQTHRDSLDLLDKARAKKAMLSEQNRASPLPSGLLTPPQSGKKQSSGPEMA
# PIM1, sequence (P11309 whole entry, species assumed): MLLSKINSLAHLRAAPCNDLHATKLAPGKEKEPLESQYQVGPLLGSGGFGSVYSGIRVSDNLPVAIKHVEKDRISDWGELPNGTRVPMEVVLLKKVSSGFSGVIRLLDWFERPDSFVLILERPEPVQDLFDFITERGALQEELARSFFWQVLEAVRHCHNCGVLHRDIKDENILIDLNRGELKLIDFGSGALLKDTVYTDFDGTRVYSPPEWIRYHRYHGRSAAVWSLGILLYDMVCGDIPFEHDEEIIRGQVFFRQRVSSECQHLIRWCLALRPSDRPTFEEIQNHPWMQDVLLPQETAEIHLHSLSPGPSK
# ERBB4/HER4, sequence (Q15303 26-1308): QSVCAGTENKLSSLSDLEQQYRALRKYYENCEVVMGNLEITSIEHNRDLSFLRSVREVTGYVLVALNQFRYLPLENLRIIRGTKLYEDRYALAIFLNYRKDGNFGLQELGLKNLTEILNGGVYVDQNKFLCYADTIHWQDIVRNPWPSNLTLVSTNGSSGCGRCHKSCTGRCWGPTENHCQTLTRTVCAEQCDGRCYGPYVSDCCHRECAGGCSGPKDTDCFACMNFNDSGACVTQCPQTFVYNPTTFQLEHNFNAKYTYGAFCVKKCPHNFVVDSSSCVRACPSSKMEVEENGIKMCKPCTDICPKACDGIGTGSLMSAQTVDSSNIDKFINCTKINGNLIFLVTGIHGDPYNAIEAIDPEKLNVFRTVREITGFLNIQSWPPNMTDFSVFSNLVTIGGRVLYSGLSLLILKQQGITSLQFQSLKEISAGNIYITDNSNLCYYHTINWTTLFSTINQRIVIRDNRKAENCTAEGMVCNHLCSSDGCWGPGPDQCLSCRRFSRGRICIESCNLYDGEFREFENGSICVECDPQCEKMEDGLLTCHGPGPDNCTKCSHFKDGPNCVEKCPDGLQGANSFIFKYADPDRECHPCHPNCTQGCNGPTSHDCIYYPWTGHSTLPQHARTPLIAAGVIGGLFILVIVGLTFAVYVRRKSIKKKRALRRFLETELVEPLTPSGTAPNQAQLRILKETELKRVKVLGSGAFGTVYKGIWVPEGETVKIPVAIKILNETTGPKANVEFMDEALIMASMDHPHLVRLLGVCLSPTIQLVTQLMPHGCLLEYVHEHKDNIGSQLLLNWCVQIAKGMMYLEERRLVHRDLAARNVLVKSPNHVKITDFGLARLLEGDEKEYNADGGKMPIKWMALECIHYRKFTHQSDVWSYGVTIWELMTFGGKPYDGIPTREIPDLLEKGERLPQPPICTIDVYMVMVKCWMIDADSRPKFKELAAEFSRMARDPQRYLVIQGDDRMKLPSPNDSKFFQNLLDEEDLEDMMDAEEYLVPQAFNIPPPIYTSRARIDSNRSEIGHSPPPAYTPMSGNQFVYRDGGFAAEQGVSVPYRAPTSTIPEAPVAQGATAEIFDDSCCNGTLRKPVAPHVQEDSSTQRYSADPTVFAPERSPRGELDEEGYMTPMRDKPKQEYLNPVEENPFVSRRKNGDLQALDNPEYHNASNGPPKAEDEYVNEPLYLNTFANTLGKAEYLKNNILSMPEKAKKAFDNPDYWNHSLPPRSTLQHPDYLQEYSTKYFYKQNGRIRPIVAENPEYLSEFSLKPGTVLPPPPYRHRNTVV
SMILES,inhibition at 1 µM [1],inhibition at 1 µM [2],inhibition at 1 µM [3],inhibition at 1 µM [4],inhibition at 1 µM [5]
"C=CC(=O)N1CCCC(c2c(F)cc(C(N)=O)c3[nH]c4c(c23)CCCCC4)C1 (single isomer, unassigned) [Compound 5-6]",-19.7%,6.3%,-3.6%,0.9%,7%
"C=CC(=O)N1CCC[C@@H](c2c(F)cc(C(N)=O)c3[nH]c4c(c23)CC2(CC4)CC2)C1 [Compound 6-2, (S)-5-(1-acryloylpiperidin-3-yl)-6-fluoro-1,2,4,9-tetrahydrospiro[carbazole-3,1′-cyclopropane]-8-carboxamide]",2.4%,1.5%,-7%,-9.5%,-43%
"C=CC(=O)N1CCC[C@@H](c2c(F)cc(C(N)=O)c3[nH]c4c(c23)CCC4)C1 [Compound 10-2, (S)-8-(1-acryloylpiperidin-3-yl)-7-fluoro-1,2,3,4-tetrahydrocyclo-penta[b]indole-5-carboxamide]",17.1%,-0.7%,-10.6%,0.4%,-7.1%
